# Assays:
# [1] = MRT in CD1 mouse at 10 mg/kg, po by LC-MS/MS analysis; type: ADME, organism-based; conditions: in vivo
# [2] = Solubility of the compound in pH 6.8 intestinal juice incubated at 37 degC for 24 hrs by LC/MS/MS analysis; type: physicochemical
# [3] = Cmax in CD1 mouse at 10 mg/kg, po by LC-MS/MS analysis; type: ADME, organism-based; parameters: dose 10 mg/kg, route oral; conditions: in vivo
# [4] = AUCt in CD1 mouse at 10 mg/kg, po by LC-MS/MS analysis; type: ADME, organism-based; conditions: in vivo
# Streptococcus pneumoniae = experiment: Antibacterial activity against penicillin-resistant Streptococcus pneumoniae after 18 to 20 hrs by CLSI-protocol based broth microdilution method; type: functional
# [5] = test system: Staphylococcus epidermidis; experiment: Antibacterial activity against methicillin-sensitive Staphylococcus epidermidis after 18 to 20 hrs by CLSI-protocol based broth microdilution method; type: functional
# [6] = target: DNA topoisomerase 2-alpha (Homo sapiens, UniProt P11388); experiment: Inhibition of human topoisomerase-2alpha using catenated DNA as substrate after 30 mins by ethidium bromide-based gel electrophoresis
# Sequence of DNA topoisomerase 2-alpha (P11388 whole entry): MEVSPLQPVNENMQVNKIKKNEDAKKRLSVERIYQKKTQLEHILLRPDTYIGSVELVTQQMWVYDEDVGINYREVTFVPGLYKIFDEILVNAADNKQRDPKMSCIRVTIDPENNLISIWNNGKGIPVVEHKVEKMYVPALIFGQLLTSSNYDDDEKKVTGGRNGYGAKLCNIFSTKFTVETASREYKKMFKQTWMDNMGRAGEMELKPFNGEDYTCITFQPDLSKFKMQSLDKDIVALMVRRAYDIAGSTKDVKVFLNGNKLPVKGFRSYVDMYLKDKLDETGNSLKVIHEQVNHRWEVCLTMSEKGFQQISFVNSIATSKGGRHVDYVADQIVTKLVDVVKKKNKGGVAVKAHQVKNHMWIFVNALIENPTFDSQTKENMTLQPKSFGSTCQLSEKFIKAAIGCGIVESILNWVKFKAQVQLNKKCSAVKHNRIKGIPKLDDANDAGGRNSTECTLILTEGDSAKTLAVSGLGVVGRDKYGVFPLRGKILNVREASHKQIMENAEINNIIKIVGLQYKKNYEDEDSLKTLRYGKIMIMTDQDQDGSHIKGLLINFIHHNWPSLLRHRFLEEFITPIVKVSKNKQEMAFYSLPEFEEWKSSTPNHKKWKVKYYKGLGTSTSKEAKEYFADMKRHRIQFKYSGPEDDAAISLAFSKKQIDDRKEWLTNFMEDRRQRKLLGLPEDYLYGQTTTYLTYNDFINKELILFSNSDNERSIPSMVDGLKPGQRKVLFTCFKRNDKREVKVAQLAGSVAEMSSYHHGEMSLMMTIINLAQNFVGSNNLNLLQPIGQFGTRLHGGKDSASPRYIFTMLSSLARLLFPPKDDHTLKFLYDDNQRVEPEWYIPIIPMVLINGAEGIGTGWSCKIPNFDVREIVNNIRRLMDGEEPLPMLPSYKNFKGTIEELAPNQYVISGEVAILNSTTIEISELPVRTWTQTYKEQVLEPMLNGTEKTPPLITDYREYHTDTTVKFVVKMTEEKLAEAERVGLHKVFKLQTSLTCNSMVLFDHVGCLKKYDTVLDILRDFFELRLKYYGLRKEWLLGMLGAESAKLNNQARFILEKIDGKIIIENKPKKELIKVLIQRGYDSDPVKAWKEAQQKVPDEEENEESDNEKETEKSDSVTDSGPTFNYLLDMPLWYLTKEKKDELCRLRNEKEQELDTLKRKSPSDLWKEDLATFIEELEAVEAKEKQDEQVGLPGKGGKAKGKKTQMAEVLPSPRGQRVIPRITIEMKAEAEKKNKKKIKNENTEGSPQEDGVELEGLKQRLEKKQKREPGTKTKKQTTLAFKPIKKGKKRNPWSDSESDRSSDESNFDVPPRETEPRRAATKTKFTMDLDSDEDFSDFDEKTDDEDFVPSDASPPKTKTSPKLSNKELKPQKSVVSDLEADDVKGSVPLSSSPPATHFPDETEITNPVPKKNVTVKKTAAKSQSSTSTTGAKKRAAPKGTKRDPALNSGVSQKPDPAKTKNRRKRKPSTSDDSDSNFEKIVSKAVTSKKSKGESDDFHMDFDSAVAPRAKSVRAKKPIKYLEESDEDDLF
# Neisseria gonorrhoeae = experiment: Antibacterial activity against Neisseria gonorrhoeae after 18 to 20 hrs by CLSI-protocol based agar microdilution method; type: functional
# [7] = test system: Staphylococcus epidermidis; experiment: Antibacterial activity against methicillin-resistant Staphylococcus epidermidis after 18 to 20 hrs by CLSI-protocol based broth microdilution method; type: functional
# Staphylococcus aureus [8] = experiment: Antibacterial activity against methicillin-resistant Staphylococcus aureus infected in Kunming mouse treated with 50 mg/kg cytochrome P450 inhibitor ABT dosed subcutaneously at 0.5 and 4.0 hrs postinfection followed by and measured at 7 to 14 days post treatment by Bliss method; type: functional; conditions: sc
# [9] = Elimination half life in CD1 mouse at 10 mg/kg, po by LC-MS/MS analysis; type: ADME, organism-based; conditions: in vivo, read-out: beta t1/2 (converted)
# DNA gyrase = DNA gyrase (Staphylococcus aureus, UniProt P0A0K8+P20831)
# Sequence of DNA gyrase (P0A0K8 whole entry): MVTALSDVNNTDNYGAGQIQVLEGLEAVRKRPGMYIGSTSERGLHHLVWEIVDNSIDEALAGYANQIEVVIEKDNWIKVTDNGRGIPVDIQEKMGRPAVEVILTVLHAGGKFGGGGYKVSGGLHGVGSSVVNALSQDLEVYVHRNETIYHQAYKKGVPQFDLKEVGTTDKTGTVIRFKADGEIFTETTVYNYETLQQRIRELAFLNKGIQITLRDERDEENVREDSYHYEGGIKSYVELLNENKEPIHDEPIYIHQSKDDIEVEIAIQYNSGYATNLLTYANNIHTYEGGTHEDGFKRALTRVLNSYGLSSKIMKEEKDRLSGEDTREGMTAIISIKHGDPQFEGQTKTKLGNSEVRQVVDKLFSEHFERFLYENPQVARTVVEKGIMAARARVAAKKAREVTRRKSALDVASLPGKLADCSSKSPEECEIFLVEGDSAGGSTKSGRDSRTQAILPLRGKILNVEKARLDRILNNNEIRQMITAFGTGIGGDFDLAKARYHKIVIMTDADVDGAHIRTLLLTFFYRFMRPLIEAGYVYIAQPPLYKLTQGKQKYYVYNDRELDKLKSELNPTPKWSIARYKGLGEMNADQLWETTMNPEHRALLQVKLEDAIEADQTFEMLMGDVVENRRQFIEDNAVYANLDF
# Sequence of DNA gyrase (P20831 whole entry): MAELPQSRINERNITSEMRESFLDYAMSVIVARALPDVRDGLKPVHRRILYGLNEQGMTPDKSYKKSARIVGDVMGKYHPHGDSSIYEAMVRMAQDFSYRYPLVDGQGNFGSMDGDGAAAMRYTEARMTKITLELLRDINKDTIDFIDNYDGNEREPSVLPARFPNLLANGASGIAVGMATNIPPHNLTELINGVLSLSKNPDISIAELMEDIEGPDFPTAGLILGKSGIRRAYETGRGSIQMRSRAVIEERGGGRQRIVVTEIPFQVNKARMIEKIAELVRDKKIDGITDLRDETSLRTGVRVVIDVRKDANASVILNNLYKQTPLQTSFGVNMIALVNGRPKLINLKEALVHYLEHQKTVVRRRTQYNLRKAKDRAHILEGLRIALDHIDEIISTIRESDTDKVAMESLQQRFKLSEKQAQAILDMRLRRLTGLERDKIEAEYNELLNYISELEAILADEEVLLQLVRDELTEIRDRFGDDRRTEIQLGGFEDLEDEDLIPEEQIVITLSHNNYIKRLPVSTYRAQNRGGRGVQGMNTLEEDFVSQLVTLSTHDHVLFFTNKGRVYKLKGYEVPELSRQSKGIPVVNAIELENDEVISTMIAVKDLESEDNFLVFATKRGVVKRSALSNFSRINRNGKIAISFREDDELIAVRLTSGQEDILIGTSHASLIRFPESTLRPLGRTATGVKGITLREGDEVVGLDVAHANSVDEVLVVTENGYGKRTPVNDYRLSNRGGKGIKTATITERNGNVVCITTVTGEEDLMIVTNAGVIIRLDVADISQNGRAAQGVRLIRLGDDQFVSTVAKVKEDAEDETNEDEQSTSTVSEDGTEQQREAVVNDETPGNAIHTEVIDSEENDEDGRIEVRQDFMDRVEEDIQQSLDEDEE
# Description: Inhibition of Staphylococcus aureus DNA gyrase supercoiling activity using relaxed pHOT-1 DNA as substrate after 60 mins by ethidium bromide-based gel electrophoresis
# Staphylococcus aureus [10] = experiment: Antibacterial activity against methicillin-resistant Staphylococcus aureus after 18 to 20 hrs by CLSI-protocol based broth microdilution method; type: functional
# [11] = Solubility of the compound in water incubated at 37 degC for 24 hrs by LC/MS/MS analysis; type: physicochemical
# Staphylococcus aureus [12] = experiment: Antibacterial activity against methicillin-sensitive Staphylococcus aureus after 18 to 20 hrs by CLSI-protocol based broth microdilution method; type: functional; conditions: Staphylococcus aureus; read-out: MIC
# Streptococcus pyogenes = experiment: Antibacterial activity against Streptococcus pyogenes after 18 to 20 hrs by CLSI-protocol based broth microdilution method; type: functional; conditions: Streptococcus pyogenes; read-out: MIC
# [13] = Solubility of the compound in pH 1.2 gastric juice incubated at 37 degC for 24 hrs by LC/MS/MS analysis; type: physicochemical
# [14] = Tmax in CD1 mouse at 10 mg/kg, po by LC-MS/MS analysis; type: ADME, organism-based; conditions: in vivo
# Staphylococcus aureus [15] = experiment: Antibacterial activity against methicillin-sensitive Staphylococcus aureus infected in Kunming mouse treated with 50 mg/kg cytochrome P450 inhibitor ABT dosed subcutaneously at 0.5 and 4.0 hrs postinfection followed by and measured at 7 to 14 days post treatment by Bliss method; type: functional; conditions: sc
structure (smiles),measurement,setting,value
C[C@@H]1CN2c3c(cc4c(N5CCOC5=O)noc4c3F)CC3(C(=O)NC(=O)NC3=O)[C@H]2[C@H](C)O1,MRT,[1],7.06 h
same,solubility at 24 h,[2],139 µM
same,Cmax,[3],183 ng/mL
same,AUC(0-t),[4],748 ng·h/mL
same,MIC,Streptococcus pneumoniae,0.25 to 1 µg/mL
same,MIC,[5],0.06 to 0.25 µg/mL
same,IC50,[6],> 200 µM
same,MIC50,Neisseria gonorrhoeae,0.03 µg/mL
same,MIC90,Neisseria gonorrhoeae,0.125 µg/mL
same,MIC,[7],0.03 to 0.25 µg/mL
same,ED50,Staphylococcus aureus [8],11.5 mg/kg
same,half-life,[9],3.41 h
same,IC50,DNA gyrase,24.3 µM
same,MIC,Staphylococcus aureus [10],0.03 to 1 µg/mL
same,solubility at 24 h,[11],128 µM
same,MIC,Staphylococcus aureus [12],0.125 to 0.25 µg/mL
same,MIC,Streptococcus pyogenes,0.25 to 0.5 µg/mL
same,solubility at 24 h,[13],121 µM
same,Tmax,[14],0.58 h
same,ED50,Staphylococcus aureus [15],11 mg/kg

# — ChEMBL document CHEMBL4316588, “Design, Synthesis, and Biological Evaluation of Novel DNA Gyrase-Inhibiting Spiropyrimidinetriones as Potent Antibiotics for Treatment of Infections Caused by Multidrug-Resistant Gram-Positive Bacteria” (J Med Chem, 2019)
